Where two headings read alike, the source gives them in different places.
Assays:
B2-AR = molecular target: T1, B2-AR (Homo sapiens, UniProt P07550); experiment: cAMP Gs dynamic HTRF assay, cells expressing beta-adrenergic receptor (CHO-K1), B2-AR; type: cell-based; conditions: for EC50: cAMP HTRF, read-out: pEC50 [B2-AR] (converted); for Emax: relative to full agonist isoproterenol, read-out: Emax (% iso) (%) [B2-AR]
T1 construct: expressed in transfected cells; host or cells: CHO-K1
Protocol: (§1) cAMP homogeneous time-resolved fluorescence (HTRF): experimental methods. Compound efficacy is determined using the cAMP Gs dynamic HTRF assay (Cisbio, catalog #62AM4PEC) largely following the manufacturer's instructions, also detailed below.
(§2) Standard serial dilution curves are 10-point, 5-fold dilutions starting from a highest concentration of 10 μM. Controls present on every assay plate are 0.1% DMSO (vehicle control), 1 μM isoproterenol (full beta-adrenergic agonist control) and […] xamoterol (partial beta-adrenergic agonist control). […] Assay plates are centrifuged at 500×g for 10 seconds. Compounds and IBMX are prepared at 2× final dose to compensate for addition of cells.
(§3) Cell preparation: 1× stimulation buffer, washing PBS (Dulbecco's phosphate-buffered saline, − Mg − Ca; Caisson Labs, catalog #PBL01), assay PBS (Dulbecco's phosphate-buffered saline, + Mg, + Ca; Caisson Labs, catalog #PBL02) and Versene (0.02% EDTA disodium salt solution in PBS without calcium or magnesium; Caisson Labs, catalog #EDL01) are pre-warmed to 37° C. Cells expressing beta-adrenergic receptor were washed in washing PBS to remove growth medium and then released from the surface by incubating with Versene for 5-10 minutes at 37° C. Cells are harvested using assay PBS, counted manually by hemocytometer or by an automated cell counter, pelleted by centrifugation (200×g, 5 minutes) and resuspended in 37° C. 1× stimulation buffer to a final density of 1.5×10^6 cells/mL. 5 μL of the suspended cell solution (7500 cell total) are added to all wells of the 384 well assay plate, the assay plate was covered with an Axygen® plate seal (Corning PCR-SP) and incubated in a humidified 37° C. environment supplemented with 5% CO2 for 30 minutes.
(§4) HTRF reagent addition, reading and data analysis: After 30 minutes of cell stimulation with test compound, the assay plates are centrifuged at 500×g for 10 seconds, and incubation was stopped with the addition of 5 μL cAMP-D2 acceptor, diluted 1:21 in detection and lysis buffer 2 (Cisbio 62CL2FDF) was added to all cells. Subsequently, 5 μL Anti-cAMP-Eu Donor, diluted 1:21 in detection and lysis buffer 2, was added to cells. Plates were sealed and reactions gently ‘vortexed’ at 900 rpm on a Heidolph Titramax 1000 for at least 30 minutes at room temperature. Plates are centrifuged again at 500×g for 10 seconds, and HTRF was measured using a Tecan Spark plate reader at 50 flashes per well. […] Potency estimates (EC50 and pEC50) are derived from the four-parameter nonlinear regression of the concentration-effect curve and an estimate of relative efficacy is determined by comparing the magnitude of the test compound HTRF signal window (min−max dose) with the signal window of the full agonist control, isoproterenol.

B1-AR = molecular target: T2, B1-AR (Homo sapiens, UniProt P08588); experiment: cAMP Gs dynamic HTRF assay, cells expressing beta-adrenergic receptor (CHO-K1), B1-AR; type: cell-based; conditions: for EC50: cAMP HTRF, read-out: pEC50 [B1-AR] (converted); for Emax: relative to full agonist isoproterenol, read-out: Emax (% iso) (%) [B1-AR]
T2 construct: expressed in transfected cells; host or cells: CHO-K1
Protocol: as §1, §2, §3, §4

T1 sequence (P07550 whole entry, species assumed): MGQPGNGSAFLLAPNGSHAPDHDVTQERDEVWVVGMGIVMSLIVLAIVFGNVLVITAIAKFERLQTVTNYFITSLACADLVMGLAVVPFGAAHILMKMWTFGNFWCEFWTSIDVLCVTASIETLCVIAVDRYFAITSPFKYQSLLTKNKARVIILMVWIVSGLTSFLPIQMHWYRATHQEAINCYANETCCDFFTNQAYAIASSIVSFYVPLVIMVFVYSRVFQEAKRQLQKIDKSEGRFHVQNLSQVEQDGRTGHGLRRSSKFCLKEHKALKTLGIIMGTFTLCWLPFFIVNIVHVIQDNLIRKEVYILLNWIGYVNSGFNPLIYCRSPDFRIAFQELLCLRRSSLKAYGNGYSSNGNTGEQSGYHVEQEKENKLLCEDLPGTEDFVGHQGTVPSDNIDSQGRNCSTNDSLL
T2 sequence (P08588 whole entry, species assumed): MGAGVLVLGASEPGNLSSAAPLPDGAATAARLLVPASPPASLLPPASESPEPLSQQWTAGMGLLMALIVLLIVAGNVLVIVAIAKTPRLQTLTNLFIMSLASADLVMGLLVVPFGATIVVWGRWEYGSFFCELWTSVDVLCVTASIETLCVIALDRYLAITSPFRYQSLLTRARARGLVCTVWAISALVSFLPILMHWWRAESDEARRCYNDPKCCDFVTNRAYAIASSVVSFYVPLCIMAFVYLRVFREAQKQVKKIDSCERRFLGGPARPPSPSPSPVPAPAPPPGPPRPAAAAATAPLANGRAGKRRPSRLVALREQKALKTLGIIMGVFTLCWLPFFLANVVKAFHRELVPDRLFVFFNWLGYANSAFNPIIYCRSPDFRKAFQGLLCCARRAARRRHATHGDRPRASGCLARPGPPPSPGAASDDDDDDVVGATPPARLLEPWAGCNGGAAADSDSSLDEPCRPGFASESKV

SMILES | EC50 (B2-AR; CHO-K1 cells) | Emax (B2-AR; CHO-K1 cells) | EC50 (B1-AR) | Emax (B1-AR) | Emax (B2-AR; CHO-K1, CHO-K1 cells)
CC(C)(NC[C@H](O)c1cc(C#N)cc2[nH]ncc12)C1CC1 [I-1] | 10 to 100 nM | > 90% | 100 to 1000 nM | > 90% | 
C[C@H](NC[C@H](O)c1cccc2c1C(F)(F)C(=O)N2)C(C)(C)C [I-2] | 10 to 100 nM | > 90% | > 1000 nM | 50 to 70% | 
C[C@H](NC[C@H](O)c1ccc(Cl)c2[nH]ncc12)C(C)(C)C [I-3] | < 10 nM |  | 100 to 1000 nM | 50 to 70% | 70 to 90%
CC(C)(C)C(C)(C)NC[C@H](O)c1cc(C#N)cc2[nH]ncc12 [I-4] | 100 to 1000 nM |  | > 1000 nM | < 50% | > 90%
C[C@H](NC[C@H](O)c1cc(C#N)cc2[nH]ncc12)C(C)(C)C [I-5] | 100 to 1000 nM |  | > 1000 nM | 50 to 70% | 70 to 90%
C[C@H](NC[C@H](O)c1cccc2[nH]ncc12)C(C)(C)C [I-6] | < 10 nM |  | 100 to 1000 nM | 70 to 90% | > 90%
CC(C)(C)C(C)(C)NC[C@H](O)c1cccc2[nH]ncc12 [I-7] | < 10 nM |  | 100 to 1000 nM | > 90% | > 90%
CC(C)(C)C(C)(C)NC[C@H](O)c1ccc(F)c2[nH]ncc12 [I-8] | < 10 nM | > 90% | > 1000 nM | 70 to 90% | 
C[C@@H](NC[C@H](O)c1cccc2[nH]ncc12)C(C)(C)C [I-9] | < 10 nM |  | 10 to 100 nM | > 90% | > 90%
C[C@@H](NC[C@H](O)c1ccc(F)c2[nH]ncc12)C1CC1 [I-10] | < 10 nM |  | < 10 nM | 70 to 90% | > 90%
C[C@H](NC[C@H](O)c1cccc2[nH]ncc12)C1CC1 [I-11] | < 10 nM |  | < 10 nM | > 90% | > 90%
CC(C)(NC[C@H](O)c1cccc2[nH]ncc12)C1CC1 [I-12] | < 10 nM | > 90% | < 10 nM | > 90% | 
C[C@@H](NC[C@H](O)c1cccc2[nH]ncc12)C1CC1 [I-13] | < 10 nM |  | < 10 nM | > 90% | > 90%
C[C@H](NC[C@H](O)c1ccc(F)c2[nH]ncc12)C(C)(C)C [I-14] | < 10 nM |  | 100 to 1000 nM | 70 to 90% | 50 to 70%
COc1ccc(C[C@@H](C)NC[C@H](O)c2cc(F)cc3[nH]ncc23)cc1 [I-15] | < 10 nM | > 90% | < 10 nM | > 90% | 
C[C@@H](NC[C@H](O)c1ccc(F)c2[nH]ncc12)C(C)(C)C [I-16] | < 10 nM |  | 10 to 100 nM | > 90% | > 90%
COc1ccc(C[C@@H](C)NC[C@H](O)c2ccc(F)c3[nH]ncc23)cc1 [I-17] | < 10 nM | > 90% | < 10 nM | > 90% | 
COc1ccc(C[C@@H](C)NC[C@H](O)c2cccc3[nH]nc(F)c23)cc1 [I-18] | < 10 nM | > 90% | < 10 nM | > 90% | 
CC(C)(NC[C@H](O)c1cc(F)cc2[nH]ncc12)C1CC1 [I-19] | < 10 nM |  | < 10 nM | > 90% | > 90%
CC(C)(NC[C@H](O)c1cccc2[nH]nc(F)c12)C1CC1 [I-20] | < 10 nM |  | < 10 nM | > 90% | > 90%
CC(C)(NC[C@H](O)c1ccc(F)c2[nH]ncc12)C1CC1 [I-21] | < 10 nM | > 90% | < 10 nM | > 90% | 
CC(C)C(C)(C)NC[C@H](O)c1ccc(F)c2[nH]ncc12 [I-22] | < 10 nM | > 90% | 10 to 100 nM | > 90% | 

SMILES | EC50 (B2-AR; CHO-K1 cells) | Emax (B2-AR; CHO-K1 cells) | EC50 (B1-AR) | Emax (B1-AR) | Emax (B2-AR; CHO-K1, CHO-K1 cells)
CCC(C)(CC)NC[C@H](O)c1cccc2[nH]ncc12 [I-23] | < 10 nM | > 90% | < 10 nM | > 90% | 
CC[C@H](C)NC[C@H](O)c1cccc2[nH]ncc12 [I-24] | < 10 nM | > 90% | 10 to 100 nM | > 90% | 
CC(C)C(C)(C)NC[C@H](O)c1cccc2[nH]nc(F)c12 [I-25] | < 10 nM | > 90% | < 10 nM | > 90% | 
CCC(C)(CC)NC[C@H](O)c1cc(F)cc2[nH]ncc12 [I-26] | < 10 nM |  | < 10 nM | > 90% | > 90%
CC(C)[C@@H](C)NC[C@H](O)c1cc(F)cc2[nH]ncc12 [I-27] | < 10 nM | > 90% | < 10 nM | > 90% | 
CCC(C)(CC)NC[C@H](O)c1ccc(F)c2[nH]ncc12 [I-28] | < 10 nM |  | < 10 nM | > 90% | > 90%
CC(C)C(C)(C)NC[C@H](O)c1cccc2[nH]ncc12 [I-29] | < 10 nM |  | 10 to 100 nM | > 90% | > 90%
CCC(C)(CC)NC[C@H](O)c1cccc2[nH]nc(F)c12 [I-30] | < 10 nM | > 90% | < 10 nM | > 90% | 
CC(C)[C@@H](C)NC[C@H](O)c1ccc(F)c2[nH]ncc12 [I-31] | < 10 nM |  | 10 to 100 nM | 70 to 90% | > 90%
CC(C)C(C)(C)NC[C@H](O)c1cc(F)cc2[nH]ncc12 [I-32] | < 10 nM | > 90% | 10 to 100 nM | > 90% | 
CC(C)[C@@H](C)NC[C@H](O)c1cccc2[nH]ncc12 [I-33] | < 10 nM | > 90% | < 10 nM | 70 to 90% | 
CC[C@H](C)NC[C@H](O)c1cc(F)cc2[nH]ncc12 [I-34] | < 10 nM | 70 to 90% | < 10 nM | > 90% | 
CC[C@H](C)NC[C@H](O)c1cccc2[nH]nc(F)c12 [I-35] | < 10 nM | 70 to 90% | < 10 nM | 70 to 90% | 
CC(C)[C@H](C)NC[C@H](O)c1ccc(F)c2[nH]ncc12 [I-36] | < 10 nM |  | < 10 nM | 70 to 90% | > 90%
CCC(CC)NC[C@H](O)c1ccc(F)c2[nH]ncc12 [I-37] | < 10 nM |  | 10 to 100 nM | 70 to 90% | 70 to 90%
CC(C)[C@@H](C)NC[C@H](O)c1cccc2[nH]nc(F)c12 [I-38] | < 10 nM |  | < 10 nM | 70 to 90% | > 90%
CC(C)[C@H](C)NC[C@H](O)c1cccc2[nH]ncc12 [I-40] | < 10 nM | > 90% | 10 to 100 nM | 70 to 90% | 
CC[C@@H](C)NC[C@H](O)c1cc(F)cc2[nH]ncc12 [I-41] | < 10 nM | > 90% | < 10 nM | > 90% | 
CCC(CC)NC[C@H](O)c1cccc2[nH]nc(F)c12 [I-42] | < 10 nM |  | 10 to 100 nM | > 90% | 70 to 90%
CCC(CC)NC[C@H](O)c1cccc2[nH]ncc12 [I-43] | < 10 nM |  | 10 to 100 nM | > 90% | > 90%
CCC(CC)NC[C@H](O)c1cc(F)cc2[nH]ncc12 [I-44] | < 10 nM |  | < 10 nM | > 90% | 70 to 90%

— patent US20240270701A1, “BETA ADRENERGIC AGONIST AND METHODS OF USING THE SAME” (Curasen Therapeutics, Inc., priority 2021, published 2024)
